Test results from patent US11260096B2, “Compositions for creatine supplementation in creatine non-responders” (ThermoLife International, LLC, priority 2019, dated 2022).
“And” between values parts separate entries of the source, which are not always exact repeats. Equal entries are not always repeated. “Also recorded” adds a separate entry of the source.

Tests used:
[1] = single-dose pharmacokinetics experiment: serum creatine and creatinine by LC-MS/MS; assay type: in vivo, human; details: for AUC (serum creatine) after single-dose intervention: linear-log trapezoidal method
Description: (§1) Ten healthy young men (age 23.6±2.9 years, body mass index 23.8±1.5 kg/m′) were recruited and signed informed consent to voluntarily participate in this double-blind, crossover, randomized controlled trial. All experimental procedures were approved by the local institutional review board, and the study was conducted in accordance with the Declaration of Helsinki. All participants had no history of creatine supplementation (or other dietary supplements) within the 4 weeks before the study commenced. All participants also had no acute or chronic diseases as evaluated by pre-participation health check and blood profiles. All participants were required to maintain their normal activity patterns and diet during the study. The participants were required to not engaged in any exhaustive exercise 24 hours before the study commenced.
(§2) Washout period of 7 days was employed between all trials to prevent the residual or carry-over effects of treatments across study periods. For the single-dose experiment, participants were administered a liquid composition that was prepared by a researcher by dissolving a powder of their respective treatment compounds in 150 mL of lukewarm water. For the 5-day intervention, the participants received five powder sachets (one per day) containing an treatment compounds. The participants were advised to stir the content of the sachet into 150 mL of lukewarm water until the powder has dissolved and to drink the liquid composition about 30 minutes before breakfast. […] Clinical assessments for both experiments were carried out between 08:00 and 12:00 after an overnight fast of 12 hours. Venous blood samples were drawn at each time point (7 points in total) for a single-dose experiment, and serum analyzed for creatine and creatinine by modified LC-MS/MS (1200 Series LC System; Agilent Technologies Inc., Santa Clara, Calif., USA). To control for variance based on different hydration levels, all participants were restricted from water ingestion between the time of collecting the baseline sample and 120 minutes after administration of the treatment. For 5-day experiment, venous blood samples were drawn at baseline and at the various follow-up times, with serum analyzed for liver enzymes by an automated analyzer (Randox Laboratories Ltd., Crumlin, UK).
Where significant differences were found, the Tukey post-hoc test was employed to identify the differences. The area under the concentration-time curve (AUC) for serum creatine and creatinine were calculated using the linear-log trapezoidal method, with AUCs compared with one-way ANOVA. The significance level was set at P<0.05. Data were analyzed using the SPSS program (SPSS Inc., Chicago, Ill., USA).

[2] = 5-day intervention: liver enzymes and estimated glomerular filtration rate (safety biomarkers); assay type: in vivo, human
Description: as §1
as §2, with “Creatinine anhydrous has been produced from creatine monohydrate in an autoclave (Memmert UF 55, Schwabach, Germany) at 160° C.” for “Clinical assessments”, “72 hours, with creatinine purity>99% in a final powder, as determined by NMR spectroscopy (Bruker Avance III 400, Billerica, Mass.). […]” for “both experiments were carried out between 08:00 and 12:00 after an overnight fast of 12 hours.”, “To control for variance based on different hydration levels, all participants were restricted from water ingestion between the time of collecting the baseline sample and 120 minutes after administration of the treatment.” left out
Estimated glomerular filtration rate (eGFR) was calculated by the abbreviated MDRD equation (Stevens et al., Am J Kidney Dis. 2007; 50: 21-35). […] In vivo metabolite concentrations were calculated using the muscle water signal as an internal intensity reference (Wang et al., J Magn Reson. 2014, 243: 81-84). […] The peak integral values of the total creatine (creatine plus phosphocreatine) signal at 3.0 ppm and the non-suppressed water signal at 4.7 ppm were quantified using curve-fitting to Gaussian lines. […]

[3] = 5-day intervention: total muscle creatine by proton magnetic resonance spectroscopy (MRS); assay type: in vivo, human; details: after five-day intervention vs baseline
Description: as §1, with “The participants were required to not engaged in any exhaustive exercise 24 hours before the study commenced.” left out
Washout period of 7 days was employed between all trials to prevent the residual or carry-over effects of treatments across study periods. […] Creatinine anhydrous has been produced from creatine monohydrate in an autoclave (Memmert UF 55, Schwabach, Germany) at 160° C. for 72 hours, with creatinine purity>99% in a final powder, as determined by NMR spectroscopy (Bruker Avance III 400, Billerica, Mass.). […] Venous blood samples were drawn at each time point (7 points in total) for a single-dose experiment, and serum analyzed for creatine and creatinine by modified LC-MS/MS (1200 Series LC System; Agilent Technologies Inc., Santa Clara, Calif., USA). […]

[4] = adverse events evaluated via open-ended questionnaires; assay type: in vivo, human; details: 5-day intervention, single participants
Description: Estimated glomerular filtration rate (eGFR) was calculated by the abbreviated MDRD equation (Stevens et al., Am J Kidney Dis. 2007; 50: 21-35). […] Twelve datasets were obtained for each individual yielding a total of 120 spectra in this study. In vivo metabolite concentrations were calculated using the muscle water signal as an internal intensity reference (Wang et al., J Magn Reson. 2014, 243: 81-84). The spectra were fitted in the time domain using a nonlinear least squares algorithm ([…]) in the Java-based magnetic resonance user interface (jMRUI) software package. […] Finally, possible adverse events of the intervention (e.g. muscle cramps, bloating, diarrhea) were evaluated via open-ended questionnaires administered during the trial.

[5] = cited from earlier work

Row | Compound | concentration at 60 min ([1]; male, human, in vivo, single oral dose (3 g CN + 3 g creatinine, 3 g CN or 3 g CRM), peak time, n=10 healthy men, read-out: average serum creatine concentration at 60 minutes post-administration) [µM] | change in serum creatinine during the single-dose study (in words) ([1]; single oral dose) | AUC (serum creatine) after single-dose intervention ([1]; single oral dose) [µmol·min/L] | participants with mildly reduced kidney function (eGFR 60-89 mL/min/1.73 m^2) ([2]; 5-day intervention, n=10) [%] | eGFR ([2]; at 5-day follow-up, mean ± SD, abbreviated MDRD equation) [mL/min/1.73 m^2] | average increase in total muscle creatine levels [3] [%] | reported side effects / adverse events (in words) ([4]; nitrate) | AUC for serum creatinine ([1]; single oral dose) [µmol·min/L] | eGFR ([2]; in vivo) [mL/min/1.73 m^2] | participants with mildly reduced kidney function (eGFR 60-89 mL/min/1.73 m^2) ([2]; in vivo) [%] | reported side effects / adverse events (in words) [4] | increase of total creatine content in skeletal muscles ([5]; dosages up to 30 g for a few days, human subject) | individuals who do not respond to creatine supplementation (prevalence of non-responders) ([5]; less than 10 mmol/kg dw increase in resting total muscle creatine after five days at 20 g/day)
1 | CN(CC(=O)O)C(=N)N.O=[N+]([O-])O [CN, creatine nitrate] | 164 ± 12.9 | remained essentially unchanged | 622.7 ± 62.9 | 40.0 | 89.8 ± 8.1 | 8.0 | irregular non-diarrheal bowel movements; also recorded: excessive sleepiness | – | – | – | – | – | –
2 | CN(CC(=O)O)C(=N)N.O [CRM, creatine monohydrate] | – | remained essentially unchanged | 466.3 ± 47.9 | – | – | 2.1 | – | 607.5 ± 37.7 | 91.7 ± 8.3 | 30.0 | episodes of bloating | more than 20% | –
3 | CN(CC(=O)O)C(=N)N [creatine] | – | – | – | – | – | – | – | – | – | – | – | – | about 25% and 20-30%
